# Experiments:
# Format in all cases: cell-based
# Fusarium verticilloides = experiment: Bioactivity of Pps-AMP1 mature peptide against fungal pathogens (spore suspension in 1/2 strength PDB); conditions: concentration at which 90% of fungal growth is inhibited, 48 hour incubation at 28° C.
# Procedure: (§1) The purified refolded and lyophilized Pps-AMP1 mature peptide was resuspended in dH2O to a final concentration of about 4 μg/μl. 12 μg of purified Pps-AMP1 mature peptide was added to 200 μl of ½ strength potato dextrose broth (PDB) containing a spore suspension of either Fusarium verticilloides, Colletotrichum graminaria, or Neurospora crassa containing 2500 spores/ml. […] A 0.5× dilution series for Pps-AMP1 mature peptide from 10 μM through to about 0.005 μM was prepared by removing 100 μl of the 10 μM stock and adding it to 100 μl of spore suspension (2500 spores/ml), mixing thoroughly to achieve a 5 μM Pps-AMP1 mature peptide concentration, transferring 100 μl of the 5 μM suspension to a fresh 100 μl spore suspension etc., until about 0.005 μM was reached. Two replicates per pathogen were performed. […] Inhibition of fungal growth was defined as little to no spore germination without detectable hyphae growth. The bioactivity of Pps-AMP1 mature peptide against these fungal pathogens is shown below. The IC90 concentration represents that concentration at which 90% of fungal growth is inhibited.
# Neurospora crassa = experiment: as above; conditions: concentration at which 90% of fungal growth is inhibited, 48 hour incubation at 28° C.
# Procedure: as §1
# [1] = tested on: Colletotrichum graminaria; experiment: as above; conditions: concentration at which 90% of fungal growth is inhibited, 48 hour incubation at 28° C.
# Procedure: as §1
# Sclerotinia sclerotiorum = experiment: In vitro 96 well microtiter plate assay, inhibition of hyphal growth; conditions: 24 hours at 22° C., 2 replicates
# Procedure: An in vitro assay was also performed in a 96 well microtiter plate to determine the activity of Pps-AMP1 mature peptide against Sclerotinia sclerotiorum. Test inoculum was started by inoculating ½ strength potato dextrose broth (PDB) liquid with a sterile loop of hyphae from a Sclerotinia culture propagated on ⅛ strength potato dextrose agar (PDA) plate. Liquid inoculum was held at room temperature (22° C.), without shaking, in the dark for 4 days, to allow sufficient growth of hyphae. The resulting suspension was macerated using a polytron tissue grinder. The sample was then diluted to the point of invisibility to the naked eye (observation under microscopy at 40× indicated the presence of hyphal fragments). […] […] Sclerotinia hyphae only, or ½ strength PDB only, were included as negative controls.
Compound,IC90 (Fusarium verticilloides) [µM],IC90 (Neurospora crassa) [µM],IC90 [1] [µM],inhibition of fungal growth (Sclerotinia sclerotiorum; 2.5 μM - 0.005 μM),inhibition of fungal growth (Sclerotinia sclerotiorum; 5 μM),inhibition of fungal growth (Sclerotinia sclerotiorum; 10 μM),inhibition of fungal growth (Sclerotinia sclerotiorum; 0.023 μM),inhibition of fungal growth (Sclerotinia sclerotiorum; 17–0.07 μM)
"Pps-AMP1 mature peptide: mature peptide of Picramnia pentandra defensin clone pps.pk0010.g2, expressed in E. coli, refolded and purified (QRLCERASLTWSGNCGNTAHCDNQCRSWEHAQHGACHVRGGKHMCFCYFNC)",0.6,0.05,2.5,2.5 μM - 0.005 μM no inhibition of fungal growth.,5 μM - moderate inhibiton of fungal growth.,10 μM - total inhibition of fungal growth.,,
"COC(=O)Nc1nc2ccccc2[nH]1 [MBC standard, methyl 2-benzimidazolecarbamate, reference compound]",,,,,,,0.023 μM - moderate inhibition of fungal growth.,17–0.07 μM - total inhibition of fungal growth.
